Data on 33 compounds can be found in the METLIN SMRT retention time set (Domingo-Almenara et al. 2019).

This series can be described thus: gradient 5% acetonitrile 3 min, to 50% in 2 min, to 85% in 15 min, held 3 min, 100 µL/min. To be noted: column: Zorbax Extend-C18 2.1 x 50 mm; eluents: water / acetonitrile, 0.1% formic acid. The procedure, abridged: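 Retention times of pure standards were taken from adduct peaks that were selected by computer and manually inspected. Over 3 months, mixtures of ~100 molecules were run by HPLC–quadrupole time-of-flight mass spectrometry in positive and negative ionization mode. The Zorbax Extend-C18 column (2.1 × 50 mm, 1.8 μm) ran at 100 μL/min in water and acetonitrile, each containing 0.1% formic acid, with 40 μL dead volume and 900 μL dwell volume.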
Consider `CNC(=O)C1CCCN(c2nc3ncn(CC(=O)Nc4ccccc4C)c(=O)c3s2)C1` (stereo not drawn), for which the RP-LC retention time turned out to be 628 s. The result for `O=C(c1ccco1)N1CCCC(Nc2ncnc3c2CCC3)C1` (stereo not drawn) reads 570 s; that for `O=C(NCc1nnnn1-c1ccc(Cl)cc1)c1ccc(S(=O)(=O)N2CCCC2)cc1`, 773 s. For `COCCc1noc(-c2cnc3nc(C)ccc3c2NC2CCCCCC2)n1` the value was 734 s. For `Cc1cccnc1NC(=O)Nc1c[nH]c2ccccc12` the value was 826 s; for `Cn1nc(-c2nnc(-c3ccc(F)cc3)o2)c2c1CCN(S(=O)(=O)c1ccc3c(c1)CCC3)C2`, 1290 s; for `Cc1n[nH]c(C)c1CCC(=O)NCc1c(F)cccc1F`, 526 s. In the case of `O=C(CN1C(=O)CCS(=O)(=O)c2ccccc21)Nc1ccc(F)cc1`, the RP-LC retention time amounted to 748 s. Compound `Cc1cc2cc(CNC(=O)Nc3cccc(Cl)c3)ccc2[nH]1` registered an RP-LC retention time of 843 s. For `COc1ccc2nc(C(=O)N3CCN(c4ccc(Cl)cc4)CC3)cn2n1` the value was 900 s; for `CCOc1ccc(-c2ccc(=O)n(CCNC(=O)c3cc(C)oc3C)n2)cc1`, 765 s; for `Cc1cccc(NC(=O)c2cc(C(C)C)n3nccc3n2)c1`, 1160 s. The result for `Cc1ccc(N2CC(c3noc(-c4cccn4C)n3)CC2=O)cc1` (stereo not drawn) reads 611 s; that for `CCC(=O)N1CCc2cc(N3CC(C(=O)Nc4cc(C)ccc4OC)CC3=O)ccc21` (stereo not drawn), 794 s. The result for `CN1C(=O)c2cccnc2Sc2cc(NC(=O)c3ccncc3)ccc21` reads 606 s; that for `CNC(=O)c1noc([C@@H]2CC(F)(F)CN2C(=O)c2cccn2C)n1`, 712 s; that for `COc1cc(NC(=O)C2CCN(S(=O)(=O)c3ccc4c(c3)sc(=O)n4C)CC2)cc(OC)c1`, 875 s. The compound `Cc1cc2c(c(=O)n(-c3ccccc3)c(=O)n2CC(=O)Nc2ccc(Cl)cc2F)n1C` gave an RP-LC retention time of 873 s. As for `COC(=O)c1cnc2nc(C)ccc2c1NCc1ccc2c(c1)OCO2`, the RP-LC retention time was 659 s.

As for `Cc1ccc(S(=O)(=O)N2CCC3(CC2)NCCN=C3NCc2ccc(Cl)cc2)cc1`, the RP-LC retention time turned out to be 742 s.

`CCn1cc(S(=O)(=O)Nc2ccc(C)cc2)c2cccnc21`: the RP-LC retention time is 838 s.

On to `COc1ccc(CC(=O)NCCc2ccc(N(C)C)cc2)cc1`, for which the RP-LC retention time is 571 s. In turn, `Cc1ccc(-c2cn3ccn(-c4cccc(F)c4)c(=O)c3n2)cc1C` came in with an RP-LC retention time of 873 s. For `Cc1ccc(N2CC(c3nc(-c4ccccc4C)no3)CC2=O)cc1F` (stereo not drawn), the RP-LC retention time worked out at 1130 s.

Compound `CCc1ccccc1NC(=O)C1CCCN(S(=O)(=O)c2c[nH]c(C(=O)N3CCCCCC3)c2)C1` (stereo not drawn) registered an RP-LC retention time of 911 s. As for `NC(=O)C1CCN(C(=O)CSc2nc3c(c(-c4ccccc4)n2)CCCC3)CC1`, the RP-LC retention time worked out at 702 s.

In turn, `CCOC(=O)c1ccc2nc(C)cc(NC(=O)c3ccco3)c2c1` gave an RP-LC retention time of 583 s.

Compound `O=C(CCc1c(-c2ccc(Cl)cc2)nc2ccccn12)N1CCOCC1` returned an RP-LC retention time of 587 s. The result for `CNC(=O)c1c(F)cccc1Nc1nc(Nc2cc3c(cc2OC)CCN3C(=O)CN(C)C)nc2[nH]ccc12` reads 652 s; that for `CCCC(=O)NCCn1c(=O)n(Cc2cccc(C)c2)c2cccnc21`, 759 s. The result for `COc1ccc(CCC(=O)NC2CCN(c3nnc4cccc(C)n34)CC2)cc1` reads 647 s; that for `CCc1nc(-c2csc(S(=O)(=O)N3CCCC(C(=O)Nc4nccs4)C3)c2)no1` (stereo not drawn), 884 s; that for `COCCNS(=O)(=O)c1cccc(-c2nc(-c3ccccc3)no2)c1`, 972 s.
